Patent US20140287048A1, “PASTE COMPRISING NON-STEROIDAL ANTI-INFLAMMATORY DRUG” (priority 2011, published 2014)

Test: in vivo
Conditions: po

## Cc1cnc(NC(=O)C2=C(O)c3ccccc3S(=O)(=O)N2C)s1 [meloxicam]
  bioavailability: ~98%
